For the experiment, the target named is T1, TPM3-TRKA fusion protein (Homo sapiens, UniProt P04629).
T1 construct: The resulted chimeric proteins always retain the kinase domain of TRK proteins; TPM3 (fusion partner, N-terminal part of tropomyosin alpha-3, P06753); endogenous in cells; host or cells: KM12 colon cancer cells; the other entry of the earlier key: TPM3 (P06753, Tropomyosin alpha-3 chain)
Kind of experiment: TPM3-TRKA fusion protein levels in KM12 cells (Western blot). It counts as cell-based. As to conditions: 16 h; TPM3-TRKA degradation in KM12 cells at 10 nM compound, category of percentage degradation; read-out: Degradation (at 10 nM). The method, then:
KM12 cells were treated with DMSO or indicated compounds at 100 nM for 16 hours.
KM12 cells were treated with DMSO or indicated compounds at 0. 1 nM, 1 nM or 10 nM for 16 hours.
KM12 cells were treated with DMSO or indicated compounds at various concentrations for 16 hours.
KM12 cells were treated with DMSO or indicated compounds at various concentrations for 4 hours.
KM12 cells (a cancer model comprising a colon cancer cell line) were treated with DMSO or indicated compounds at various concentrations for 4 hours.
KM12 cells were treated with heterobifunctional compounds or their corresponding control compounds at 10 nM or 100 nM for 16 hours.
KM12 cells were treated with heterobifunctional compounds or their corresponding control compounds at 0.4-30 nM for 8-16 hours. […] Cells were authenticated using the short tandem repeat (STR) assays. […] Stable cell lines were established by lentivirus transduction, selected and maintained in medium containing 1 μg/mL puromycin (Beyotime Biotechnology).
Cultured cells were washed with cold PBS once and lysed in cold RIPA buffer supplemented with protease inhibitors and phosphatase inhibitors (Beyotime Biotechnology). The solutions were then incubated at 4° C. for 30 minutes with gentle agitation to fully lyse cells. For tumor tissues, tumors were cut into small pieces, milled with cold RIPA buffer using a mechanical homogenizer and lysed for 1 hour at 4° C. Cell lysates were centrifuged at 13,000 rpm for 10 minutes at 4° C. and pellets were discarded. Total protein concentrations in the lysates were determined by BCA assays (Beyotime Biotechnology). Cell lysates were mixed with Laemmli loading buffer to 1× and heated at 99° C. for 5 min. Proteins were resolved on SDS-PAGE and visualized by chemiluminescence. Images were taken by a ChemiDoc MP Imaging system (Bio-Rad). Protein bands were quantitated using the software provided by Bio-Rad.
On the technique in general: A western blot detects proteins with antibodies after separation by electrophoresis.

Structures are written as SMILES.

T1 sequence (P04629 with tags, fused parts or gaps): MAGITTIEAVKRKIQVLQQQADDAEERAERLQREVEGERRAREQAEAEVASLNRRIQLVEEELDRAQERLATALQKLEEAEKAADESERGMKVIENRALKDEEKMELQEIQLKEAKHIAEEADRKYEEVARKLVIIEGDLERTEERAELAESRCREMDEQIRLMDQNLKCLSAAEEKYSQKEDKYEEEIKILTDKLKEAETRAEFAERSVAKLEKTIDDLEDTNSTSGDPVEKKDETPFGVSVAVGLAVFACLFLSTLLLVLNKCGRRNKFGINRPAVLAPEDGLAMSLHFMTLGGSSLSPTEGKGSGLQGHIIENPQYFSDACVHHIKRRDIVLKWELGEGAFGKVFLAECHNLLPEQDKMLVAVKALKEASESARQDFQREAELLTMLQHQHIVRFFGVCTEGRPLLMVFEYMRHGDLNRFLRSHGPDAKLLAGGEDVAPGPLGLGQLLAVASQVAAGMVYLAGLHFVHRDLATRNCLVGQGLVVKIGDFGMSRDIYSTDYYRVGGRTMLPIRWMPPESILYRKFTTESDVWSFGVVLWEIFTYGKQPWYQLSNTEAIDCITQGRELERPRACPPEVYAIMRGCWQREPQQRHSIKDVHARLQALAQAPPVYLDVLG

Turning to `Cc1ncsc1-c1ccc(CNC(=O)[C@@H]2C[C@@H](O)CN2C(=O)[C@@H](NC(=O)CCCCCCC(=O)N2CCN(c3cccc(-c4cnc5ccc(N6CCC[C@@H]6c6cccc(F)c6)nn45)n3)CC2)C(C)(C)C)cc1` [CPD-029, (25,4R)-1-((S)-2-(8-(4-(6-(6-((R)-2-(3-Fluorophenyl)pyrrolidin-1-yl)imidazo[1,2-b]pyridazin-3-yl)pyridin-2-yl)piperazin-1-yl)-8-oxooctanamido)-3,3-dimethylbutanoyl)-4-hydroxy-N-(4-(4-methylthiazol-5-yl)benzyl)pyrrolidine-2-carboxamide], the percent degradation of TPM3-TRKA protein at 0.01 µM lay within 50 to 80%.

`O=C1CCC(N2C(=O)c3cccc(NCCOCCC(=O)N4CCN(c5ccc(C(=O)Nc6n[nH]c7ccc(Cc8cc(F)cc(F)c8)cc67)c(NC6CCOCC6)c5)CC4)c3C2=O)C(=O)N1` (centres unmarked) [CPD-030, N-(5-(3,5-Difluorobenzyl)-1H-indazol-3-yl)-4-(4-(3-(2-((2-(2,6-dioxopiperidin-3-yl)-1,3-dioxoisoindolin-4-yl)amino)ethoxy)propanoyl)piperazin-1-yl)-2-((tetrahydro-2H-pyran-4-yl)amino)benzamide]: the percent degradation of TPM3-TRKA protein at 0.01 µM was more than 80%. With `O=C1CCC(N2C(=O)c3cccc(NCCOCCOCCOCCOCCC(=O)N4CCN(c5ccc(C(=O)Nc6n[nH]c7ccc(Cc8cc(F)cc(F)c8)cc67)c(NC6CCOCC6)c5)CC4)c3C2=O)C(=O)N1` (centres unmarked) [CPD-031, N-(5-(3,5-Difluorobenzyl)-1H-indazol-3-yl)-4-(4-(1-((2-(2,6-dioxopiperidin-3-yl)-1,3-dioxoisoindolin-4-yl)amino)-3,6,9,12-tetraoxapentadecan-15-oyl)piperazin-1˜yl)-2-((tetrahydro-2H-pyran-4-yl)amino)benzamide] the figure was more than 80%; with `O=C1CCC(N2C(=O)c3cccc(NCCOCCOCCC(=O)N4CCN(c5ccc(C(=O)Nc6n[nH]c7ccc(Cc8cc(F)cc(F)c8)cc67)c(NC6CCOCC6)c5)CC4)c3C2=O)C(=O)N1` (stereo not drawn) [CPD-032, N—(S-(3,5-Difluorobenzyl)-1H-indazol-3-yl)-4-(4-(3-(2-(2-((2-(2,6-dioxopiperidin-3-yl)-1,3-dioxoisoindolin-4-yl)amino)ethoxy)ethoxy)propanoyl)piperazin-1-yl)-2-((tetrahydro-2H-pyran-4-yl)amino)benzamide], more than 80%; with `Cc1ncsc1-c1ccc(CNC(=O)[C@@H]2C[C@@H](O)CN2C(=O)[C@@H](NC(=O)CCCCCCC(=O)N2CCN(c3ccc(C(=O)Nc4n[nH]c5ccc(Cc6cc(F)cc(F)c6)cc45)c(NC4CCOCC4)c3)CC2)C(C)(C)C)cc1` [CPD-033, (2S,4R)-1-((S)-2-(8-(4-(4-((5-(3,5-Difluorobenzyl)-1H-indazol-3-yl)carbamoyl)-3-((tetrahydro-2H-pyran-4-yl)amino)phenyl)piperazin-1-yl)-8-oxooctanamido)-3,3-dimethylbutanoyl)-4-hydroxy-N-(4-(4-methylthiazol-5-yl)benzyl)pyrrolidine-2-carboxamide], more than 80%. On to `Cc1ncsc1-c1ccc(CNC(=O)[C@@H]2C[C@@H](O)CN2C(=O)[C@@H](NC(=O)CCCCCCCCC(=O)N2CCN(c3ccc(C(=O)Nc4n[nH]c5ccc(Cc6cc(F)cc(F)c6)cc45)c(NC4CCOCC4)c3)CC2)C(C)(C)C)cc1` [CPD-034, (28,4R)-1-((S)-2-(10-(4-(4-((5-(3,5-Difluorobenzyl)-1H-indazol-3-yl)carbamoyl)-3-((tetrahydro-2H-pyran-4-yl)amino)phenyl)piperazin-1-yl)-10-oxodecanamido)-3,3-dimethylbutanoyl)-4-hydroxy-N-(4-(4-methylthiazol-5-yl)benzyl)pyrrolidine-2-carboxamide], for which the percent degradation of TPM3-TRKA protein at 0.01 µM is less than 50%. With `Cc1ncsc1-c1ccc(CNC(=O)[C@@H]2C[C@@H](O)CN2C(=O)[C@@H](NC(=O)CCCCCCCCCC(=O)N2CCN(c3ccc(C(=O)Nc4n[nH]c5ccc(Cc6cc(F)cc(F)c6)cc45)c(NC4CCOCC4)c3)CC2)C(C)(C)C)cc1` [CPD-035, (25,4R)-1-((S)-2-(11-(4-(4-((5-(3,5-Difluorobenzyl)-1H-indazol-3-yl)carbamoyl)-3-((tetrahydro-2H-pyran-4-yl)amino)phenyl)piperazin-1-yl)-11-oxoundecanamido)-3,3-dimethylbutanoyl)-4-hydroxy-N-(4-(4-methylthiazol-5-yl)benzyl)pyrrolidine-2-carboxamide] the figure was less than 50%; with `Cc1ncsc1-c1ccc(CNC(=O)[C@@H]2C[C@@H](O)CN2C(=O)[C@@H](NC(=O)CCCCCCCC(=O)N2CCN(c3ccc(C(=O)Nc4n[nH]c5ccc(Cc6cc(F)cc(F)c6)cc45)c(NC4CCOCC4)c3)CC2)C(C)(C)C)cc1` [CPD-037, (25,4R)-1-((S)-2-(9-(4-(4-((5-(3,5-Difluorobenzyl)-1H-indazol-3-yl)carbamoyl)-3-((tetrahydro-2H-pyran-4-yl)amino)phenyl)piperazin-1-yl)-9-oxononanamido)-3,3-dimethylbutanoyl)-4-hydroxy-N-(4-(4-methylthiazol-S-yl)benzyl)pyrrolidine-2-carboxamide], 50 to 80%. Turning to `Cc1ncsc1-c1ccc(CNC(=O)[C@@H]2C[C@@H](O)CN2C(=O)[C@@H](NC(=O)CCOCCOCCOCCC(=O)N2CCN(c3ccc(C(=O)Nc4n[nH]c5ccc(Cc6cc(F)cc(F)c6)cc45)c(NC4CCOCC4)c3)CC2)C(C)(C)C)cc1` [CPD-039, (28,4R)-1-((S)-2-(tert-butyl)-16-(4-(4-((5-(3,5-Difluorobenzyl)-1H-indazol-3-yl)carbamoyl)-3-((tetrahydro-2H-pyran-4-yl)amino)phenyl)piperazin-1-yl)-4,16-dioxo-7,10,13-trioxa-3-azahexadecanoyl)-4-hydroxy-N-(4-(4-methylthiazol-5-yl)benzyl)pyrrolidine-2-carboxamide], the percent degradation of TPM3-TRKA protein at 0.01 µM is less than 50%. On to `Cc1ncsc1-c1ccc(CNC(=O)[C@@H]2C[C@@H](O)CN2C(=O)[C@@H](NC(=O)CCOCCOCCOCCOCCC(=O)N2CCN(c3ccc(C(=O)Nc4n[nH]c5ccc(Cc6cc(F)cc(F)c6)cc45)c(NC4CCOCC4)c3)CC2)C(C)(C)C)cc1` [CPD-041, (2S,4R)-1-((S)-2-(tert-butyl)-19-(4-(4-((5-(3,5-Difluorobenzyl)-1H-indazol-3-yl)carbamoyl)-3-((tetrahydro-2H-pyran-4-yl)amino)phenyl)piperazin-1-yl)-4,19-dioxo-7,10,13,16-tetraoxa-3-azanonadecanoyl)-4-hydroxy-N-(4-(4-methylthiazol-5-yl)benzyl)pyrrolidine-2-carboxamide], for which the percent degradation of TPM3-TRKA protein at 0.01 µM was less than 50%.

In the case of `Cc1ncsc1-c1ccc(CNC(=O)[C@@H]2C[C@@H](O)CN2C(=O)[C@@H](NC(=O)CCCCC(=O)N2CCN(c3ccc(C(=O)Nc4n[nH]c5ccc(Cc6cc(F)cc(F)c6)cc45)c(NC4CCOCC4)c3)CC2)C(C)(C)C)cc1` [CPD-044], the percent degradation of TPM3-TRKA protein at 0.01 µM fell in the range of 50 to 80%. With `Cc1ncsc1-c1ccc(CNC(=O)[C@@H]2C[C@@H](O)CN2C(=O)[C@@H](NC(=O)COCC(=O)N2CCN(c3ccc(C(=O)Nc4n[nH]c5ccc(Cc6cc(F)cc(F)c6)cc45)c(NC4CCOCC4)c3)CC2)C(C)(C)C)cc1` [CPD-045, (28,4R)-1-((S)-2-(2-(2-(4-(4-((5-(3,5˜Difluorobenzyl)-1H-indazol-3-yl)carbamoyl)-3-((tetrahydro-2H-pyran-4-yl)amino)phenyl)piperazin-1-yl)-2-oxoethoxy)acetamido)-3,3-dimethylbutanoyl)-4-hydroxy-N-(4-(4-methylthiazol-5-yl)benzyl)pyrrolidine-2-carboxamide] the figure was 50 to 80%; with `Cc1ncsc1-c1ccc(CNC(=O)[C@@H]2C[C@@H](O)CN2C(=O)[C@@H](NC(=O)CCC(=O)N2CCN(c3ccc(C(=O)Nc4n[nH]c5ccc(Cc6cc(F)cc(F)c6)cc45)c(NC4CCOCC4)c3)CC2)C(C)(C)C)cc1` [CPD-046, (25,4R)-1-((S)-2-(4-(4-(4-((S-(3,5-Difluorobenzyl)-1H-indazol-3-yl)carbamoyl)-3,3-((tetrahydro-2H-pyran-4-yl)amino)phenyl)piperazin-1-yl)-4-oxobutanamido)-3,3-dimethylbutanoyl)-4-hydroxy-N-(4-(4-methylthiazol-S-yl)benzyl)pyrrolidine-2-carboxamide], 50 to 80%; with `Cc1ncsc1-c1ccc(CNC(=O)[C@@H]2C[C@@H](O)CN2C(=O)[C@@H](NC(=O)CCCCCC(=O)N2CCN(c3ccc(C(=O)Nc4n[nH]c5ccc(Cc6cc(F)cc(F)c6)cc45)c(NC4CCOCC4)c3)CC2)C(C)(C)C)cc1` [CPD-047, (28,4R)-1-((S)-2-(7-(4-(4-((5-(3,5-Difluorobenzyl)-1H-indazol-3-yl)carbamoyl)-3-((tetrahydro-2H-pyran-4-yl)amino)phenyl)piperazin-1-yl)-7-oxoheptanamido)-3,3-dimethylbutanoyl)-4-hydroxy-N-(4-(4-methylthiazol-5-yl)benzyl)pyrrolidine-2-carboxamide], more than 80%.

(Values after US12410171B2, “Tropomyosin receptor kinase (TRK) degradation compounds and methods of use” (Cullgen (Shanghai), Inc., priority 2020, dated 2025).)
